Laboratory results taken from PubChem BioAssay (NCI).
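How tested: cells in 96-well plates exposed to compound for 48 hours at five concentrations. The concentration for full growth arrest is given as TGI.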

Legend:
Assay in all cases: inhibition of tumour cell growth, NCI panel, 48 h
ACHN renal = system: ACHN renal
MALME-3M melanoma = system: MALME-3M melanoma
K-562 leukemia = system: K-562 leukemia
SW-620 colon = system: SW-620 colon
UO-31 renal = system: UO-31 renal
SK-MEL-5 melanoma = system: SK-MEL-5 melanoma
UACC-257 melanoma = system: UACC-257 melanoma
HCT-116 colon = system: HCT-116 colon
RXF 393 renal = system: RXF 393 renal
SF-268 CNS = system: SF-268 CNS
NCI-H522 lung = system: NCI-H522 lung
OVCAR-5 ovarian = system: OVCAR-5 ovarian
SR leukemia = system: SR leukemia
OVCAR-8 ovarian = system: OVCAR-8 ovarian
M14 melanoma = system: M14 melanoma
U251 CNS = system: U251 CNS
NCI/ADR-RES ovarian = system: NCI/ADR-RES ovarian
MCF7 breast = system: MCF7 breast

Row | Compound | TGI (ACHN renal) [µM] | TGI (MALME-3M melanoma) [µM] | TGI (K-562 leukemia) [µM] | TGI (SW-620 colon) [µM] | TGI (UO-31 renal) [µM] | TGI (SK-MEL-5 melanoma) [µM] | TGI (UACC-257 melanoma) [µM] | TGI (HCT-116 colon) [µM] | TGI (RXF 393 renal) [µM] | TGI (SF-268 CNS) [µM] | TGI (NCI-H522 lung) [µM] | TGI (OVCAR-5 ovarian) [µM] | TGI (SR leukemia) [µM] | TGI (OVCAR-8 ovarian) [µM] | TGI (M14 melanoma) [µM] | TGI (U251 CNS) [µM] | TGI (NCI/ADR-RES ovarian) [µM] | TGI (MCF7 breast) [µM]
1 | CN(C)CC1CCC(CN(C)C)C1=NO (stereo not given) | > 100 | > 100 | > 100 | > 100 | > 100 | > 100 | > 100 | > 100 | > 100 | > 100 | > 100 | > 100 | > 100 | > 100 | > 100 |  |  | 
2 | O=c1oc2ccccc2c(O)c1C(c1ccc([N+](=O)[O-])cc1)c1c(O)c2ccccc2oc1=O |  | > 100 |  | > 100 | > 100 | > 100 | > 100 | > 100 |  | > 100 | > 100 |  |  | > 100 |  | > 100 | > 100 | 
3 | CCCC/C=C1\CCC(CN2CCOCC2)C1=O (stereo not given) | 8.23 | 4.95 | 5.82 | 5.13 | 11.6 | 26.9 | 13.5 | 5.55 | 2.89 | 36.3 | 2.17 | 32.9 | 5.23 | 22.5 | 10.3 | 8.35 |  | 4.93
4 | COc1cc([C@@H]2c3cc4c(cc3[C@@H](NC(=O)c3ccc(C(C)=O)cc3)C3COC(=O)[C@@H]32)OCO4)cc(OC)c1O (stereo not given in full) | 1.75 | 3.33 | > 100 | 12.3 | 17.6 | 10.3 | 32.2 | 5.03 | 72.1 | > 100 | 3.89 | 7.69 |  | 13.7 | 31.1 | 1.65 |  | 
5 | CC1=CC(=O)c2cccc(O)c2C1=O | 3.17 | 2.98 | 20 | 4.08 | 3.28 | 3.29 | 3.36 | 3.49 | 3.36 | 14.6 | 5.42 | 14.8 | > 21.9 | 15.4 | 3.25 | 30.2 |  | 
6 | C/C(CC(=O)Nc1ccc(C)cc1)=N\NC(N)=S | > 100 | > 100 | > 100 | > 100 | > 100 | > 100 | > 100 | > 100 | > 100 | > 100 | > 100 | > 100 |  | > 100 | > 100 | > 100 |  | 
7 | Cc1occc1C(=S)Nc1ccc(Cl)c(C(=O)OCC2CC2)c1 | > 100 | > 100 | > 100 | > 100 | > 100 | > 100 | > 100 | > 100 |  | > 100 | > 100 | > 100 |  | > 100 | > 100 | > 100 | > 100 | > 100
8 | Fc1ccc(C(OCCN2CC3CC2CN3CCCc2ccccc2)c2ccc(F)cc2)cc1 (stereo not given) | 23.7 | 8.27 |  | 24.1 | 24.7 | 3.39 | 12.7 | 18.5 |  | 22.4 | 21.2 | 23.5 |  | 10.1 | 3.79 | 19.5 | 19.8 | 18.8
